The nature of one data set: in vitro. The settings on record: PAMPA, pH 7.4, log Pe.
The conditions of data set [1]: cited from earlier work.
A short description of data set [2]: skin-PAMPA membrane stability after pre-treatment at basic pH. The settings on record: membrane soaked at pH 7, 8, 9, 10 for 30 min or 4 h; then assay 4 h with stirring, donor pH 5, acceptor pH 7.4; versus untreated membrane. A general note: The PAMPA barrier holds no transporters, so it reflects passive diffusion.
Experimental: Then, a standard permeation assay was carried out with an incubation time of 4 h and stirring at pH 5 in the donor compartment and pH 7.4 in the acceptor compartment. Simultaneously, permeation assays were also performed without the previous soaking treatment at basic pH.
On the set-up of data set [3]: method as in earlier work. Particulars: octanol-water partition coefficient; cited from earlier work.
The conditions of data set [4]: cited from earlier work. This is another data set of the same source.
Data set [5] can be described thus: skin-PAMPA permeability assay (gradient-pH, UPLC-DAD). Particulars: for Papp at 4 h, 50 μM / Papp at 24 h, 50 μM / Papp at 30 min, 50 μM: PAMPA.
For data set [6] the following is noted: PAMPA.
The mark [7] stands for this setting: logarithm of human skin permeation coefficient, neutral form, corrected for ionization in water and for temperature at 37 °C.
Where [8] appears, read: optimized assay conditions (4 h incubation, stirring), measured at the pH corresponding to the neutral form, acceptor pH 7.4.
The mark [9] stands for this setting: log Pe, with stirring, 4 h incubation, neutral form (donor pH 3.0, aminopyrine pH 7.0), acceptor pH 7.4, 32 °C.
The mark [10] stands for this setting: log Pe, with stirring, 24 h incubation, neutral form (donor pH 3.0, aminopyrine pH 7.0), acceptor pH 7.4, 32 °C.
Where [11] appears, read: log Pe, without stirring, 4 h incubation, neutral form (donor pH 3.0, aminopyrine pH 7.0), acceptor pH 7.4, 32 °C.
The mark [12] stands for this setting: log Pe, without stirring, 24 h incubation, neutral form (donor pH 3.0, aminopyrine pH 7.0), acceptor pH 7.4, 32 °C.
[13] abbreviates: mole fraction, with stirring, 30 min incubation, neutral form.
Where [14] appears, read: mole fraction, with stirring, 4 h incubation, neutral form.
The mark [15] stands for this setting: mole fraction, with stirring, 24 h incubation, neutral form.
Where [16] appears, read: mole fraction, without stirring, 30 min incubation, neutral form.
Where [17] appears, read: mole fraction, without stirring, 4 h incubation, neutral form.
Setting [18] is: mole fraction, without stirring, 24 h incubation, neutral form.
Setting [19] is: without stirring, 4 h incubation, neutral form (donor pH 3.0, aminopyrine pH 7.0), acceptor pH 7.4, 32 °C.
Where [20] appears, read: log Pe, without stirring, 30 min incubation, neutral form (donor pH 3.0, aminopyrine pH 7.0), acceptor pH 7.4, 32 °C.
The mark [21] stands for this setting: with stirring, 30 min incubation, neutral form (donor pH 3.0, aminopyrine pH 7.0), acceptor pH 7.4, 32 °C.
Setting [22] is: pH 7.4, log Pe, optimized assay conditions (4 h incubation, stirring), measured at the pH corresponding to the neutral form, acceptor pH 7.4.

The values that follow come from publication PMC8915600, “Optimization of experimental conditions for skin-PAMPA measurements” (ADMET & DMPK, 2020).

Read-outs that look alike come from different tables or passages of the source. Marks after values point to notes of the source that are not given here.

On to `Oc1ccc(Cl)cc1Cl` [2,4-Dichlorophenol], for which the Papp at 4 h, 50 μM in “in vitro” is 120 ×10⁻⁶ cm/s. Moreover, in data set [1] (setting [7]), the “log Kp” value is listed as -4.30 cm/s.

As to `Cc1ccccc1N` [2-toluidine], the “change of skin-PAMPA log Pe after membrane treatment at basic pH” value (shortened to “change of skin-PAMPA log Pe”) in data set [2] is given as “remain constant”.

For the compound `Cc1cccc(O)c1` [3-Methylphenol (m-Cresol), 3-Methylphenol], in the data set “in vitro” (setting [8]), the Papp is 46.8 ×10⁻⁶ cm/s. The “log Kp” value in data set [1] (setting [7]) was -4.89 cm/s.

In turn, `O=[N+]([O-])c1ccc(O)cc1` [4-Nitrophenol] had a Papp in the data set “in vitro” (setting [8]) of 12.3 ×10⁻⁶ cm/s. In addition, in data set [1] (setting [7]), the “log Kp” value is -5.33 cm/s.

Regarding `CCC1(CC)C(=O)NC(=O)NC1=O` [5,5-Diethylbarbituric acid (Barbital), 5,5-Diethylbarbituric acid], the Papp in the data set “in vitro” was 1.78 ×10⁻⁶ cm/s. For the same compound, the “log Kp” value in data set [1] (human) is given as -7.29 cm/s.

Compound `CCC1(c2ccccc2)C(=O)NC(=O)NC1=O` [5-Ethyl-5-phenylbarbituric acid] showed a Papp in “in vitro” of 0.891 ×10⁻⁶ cm/s. Further, the “log Kp” value in data set [1] (human) is reported as -6.68 cm/s.

For `O=c1[nH]cc(F)c(=O)[nH]1` [5-Fluorouracil], in data set [3], the “log Po/w” value was -0.89. For the same compound, the pKa in data set [4] is given as 7.86 ^a. Besides, the “log Kp” value in data set [1] (setting [7]) was -6.82 cm/s. Further, the Papp at 4 h, 50 μM in data set [5] (setting [9]) was 1.7 ×10⁻⁶ cm/s; in data set [5] (setting [11]) it was 0.339 ×10⁻⁶ cm/s. Further, the values for the Papp at 24 h, 50 μM in data set [5] (setting [10]) and in data set [5] (setting [12]) were 0.692 ×10⁻⁶ cm/s and 0.851 ×10⁻⁶ cm/s, respectively. For the same compound, the “RM (membrane retention)” value in data set [5] (setting [13]) was 0.00; in data set [5] (setting [14]), 0.04(±0.04); in data set [5] (setting [15]) it was 0.08(±0.03); in data set [5] (setting [16]), 0.00; in data set [5] (setting [17]) it was 0.01(±0.03); in data set [5] (setting [18]) it was 0.05(±0.02). The results for the “log Pe” value in data set [5] (setting [8]) and in data set [5] (setting [19]) were -5.77±0.02 cm/s and -6.47 cm/s, respectively.

Turning to `Cc1c(N(C)C)c(=O)n(-c2ccccc2)n1C` [Aminopyrine], in data set [4] (aqueous), the pKa is 5.00 ^b. For the same compound, the “log Kp” value in data set [1] (setting [7]) is reported as -6.55 cm/s.

On to `Nc1ccccc1` [Aniline], for which, in “in vitro”, the Papp is 28.2 ×10⁻⁶ cm/s. Besides, the “log Kp” value in data set [1] (human) is -4.94 cm/s.

Regarding `C[C@H]1O[C@@H](O[C@H]2[C@@H](O)C[C@H](O[C@H]3[C@@H](O)C[C@H](O[C@H]4CC[C@@]5(C)[C@H](CC[C@@H]6[C@@H]5CC[C@]5(C)[C@@H](C7=CC(=O)OC7)CC[C@]65O)C4)O[C@@H]3C)O[C@@H]2C)C[C@H](O)[C@@H]1O` [Digitoxin], in data set [6], the “log Pe” value is -6.34(±0.13) cm/s. In data set [1] (setting [7]), the “log Kp” value is given as -8.15 cm/s. Further, the “RM (membrane retention)” value in data set [5] (setting [13]) is 0.00; in data set [5] (setting [14]) it was 0.22(±0.04); in data set [5] (setting [15]) it was 0.29(±0.05); in data set [5] (setting [16]) it was 0.00; in data set [5] (setting [17]), 0.09(±0.03); in data set [5] (setting [18]), 0.25(±0.02).

Regarding `CC(C(=O)O)c1ccc(-c2ccccc2)c(F)c1` (stereo not drawn) [Flurbiprofen], the “log Po/w” value in data set [3] is 4.16. Also, the pKa in data set [4] is 4.19 ^c. Besides, the “log Kp” value in data set [1] (setting [7]) was -4.72 cm/s. Besides, the results for the Papp at 4 h, 50 μM in data set [5] (setting [9]) and in data set [5] (setting [11]) were 204 ×10⁻⁶ cm/s and 141 ×10⁻⁶ cm/s, respectively. The Papp at 30 min, 50 μM in data set [5] (setting [20]) was 288 ×10⁻⁶ cm/s. Besides, the “RM (membrane retention)” value in data set [5] (setting [13]) is 0.18(±0.03); in data set [5] (setting [14]) it was 0.00; in data set [5] (setting [15]), 0.00; in data set [5] (setting [16]), 0.13(±0.02); in data set [5] (setting [17]) it was 0.00; in data set [5] (setting [18]) it was 0.00. The figures for the “log Pe” value in data set [5] (setting [8]) and in data set [5] (setting [21]) were -3.69±0.01 cm/s and -2.98(±0.13) cm/s, respectively.

With `COC1=CC(=O)C[C@@H](C)[C@]12Oc1c(Cl)c(OC)cc(OC)c1C2=O` [Griseofulvin], the “log Po/w” value in data set [3] is listed as 2.18. Moreover, the “log Kp” value in data set [1] (setting [7]) is given as -6.44 cm/s. In addition, the Papp at 4 h, 50 μM in data set [5] (setting [9]) was 5.62 ×10⁻⁶ cm/s; in data set [5] (setting [11]), 4.68 ×10⁻⁶ cm/s; in data set [5] (setting [22]), 5.25 ×10⁻⁶ cm/s. Moreover, the Papp at 24 h, 50 μM was 7.59 ×10⁻⁶ cm/s in data set [5] (setting [10]) and 6.31 ×10⁻⁶ cm/s in data set [5] (setting [12]). The Papp at 30 min, 50 μM in data set [5] (setting [20]) is 2.24 ×10⁻⁶ cm/s. Besides, the “RM (membrane retention)” value in data set [5] (setting [13]) is recorded as 0.06(±0.01); in data set [5] (setting [14]) it was 0.19(±0.01); in data set [5] (setting [15]), 0.24(±0.02); in data set [5] (setting [16]), 0.03(±0.02); in data set [5] (setting [17]), 0.16(±0.01); in data set [5] (setting [18]), 0.20(±0.02). Moreover, the “log Pe” value in data set [5] (setting [21]) is reported as -5.61(±0.01) cm/s. Also, the “change of skin-PAMPA log Pe” value in data set [2] is “slight increase at pH 9 and 10”.

With `CC(C)Cc1ccc(C(C)C(=O)O)cc1` (stereo not drawn) [Ibuprofen], the “log Kp” value in data set [1] (setting [7]) was -4.58 cm/s. Further, the values for the Papp at 4 h, 50 μM in data set [5] (setting [9]) and in data set [5] (setting [11]) were 245 ×10⁻⁶ cm/s and 224 ×10⁻⁶ cm/s, respectively. Besides, the Papp at 30 min, 50 μM in data set [5] (setting [20]) is 257 ×10⁻⁶ cm/s. In addition, the “RM (membrane retention)” value in data set [5] (setting [13]) is reported as 0.22(±0.03); in data set [5] (setting [14]), 0.00; in data set [5] (setting [15]), 0.00; in data set [5] (setting [16]) it was 0.19(±0.07); in data set [5] (setting [17]), 0.09(±0.03); in data set [5] (setting [18]) it was 0.00. Besides, the results for the “log Pe” value in data set [5] (setting [8]) and in data set [5] (setting [21]) were -3.61±0.06 cm/s and -2.71(±0.04) cm/s, respectively.

With `COc1ccc2c(c1)c(CC(=O)O)c(C)n2C(=O)c1ccc(Cl)cc1` [Indomethacine], in data set [1] (setting [7]), the “log Kp” value is -5.39 cm/s. In addition, the Papp at 4 h, 50 μM in data set [5] (setting [22]) was 39.8 ×10⁻⁶ cm/s. For the same compound, the “change of skin-PAMPA log Pe” value in data set [2] is “remain constant”.

With `c1ccc2cnccc2c1` [Isoquinoline], the “log Kp” value in data set [1] (setting [7]) is -5.11 cm/s. The Papp at 4 h, 50 μM in data set [5] (setting [22]) is 63.1 ×10⁻⁶ cm/s.

`COc1ccccc1` [Methyl phenyl ether (Anisole), Methyl phenyl ether]: the “log Kp” value in data set [1] (setting [7]) is -4.68 cm/s. The Papp at 4 h, 50 μM in data set [5] (setting [22]) is 45.7 ×10⁻⁶ cm/s.

For `CN1C(C(=O)Nc2ccccn2)=C(O)c2ccccc2S1(=O)=O` [Piroxicam], the “log Kp” value in data set [1] (setting [7]) is given as -6.02 cm/s. Moreover, the Papp at 4 h, 50 μM in data set [5] (setting [22]) is 21.4 ×10⁻⁶ cm/s.

With `CC(=O)[C@H]1CC[C@H]2[C@@H]3CCC4=CC(=O)CC[C@]4(C)[C@H]3CC[C@]12C` [Progesterone], the “log Kp” value in data set [1] (setting [7]) is -4.90 cm/s. Besides, the Papp at 4 h, 50 μM is 77.6 ×10⁻⁶ cm/s in data set [5] (setting [9]), 13.2 ×10⁻⁶ cm/s in data set [5] (setting [11]) and 74.1 ×10⁻⁶ cm/s in data set [5] (setting [22]). The results for the apparent permeability coefficient (Papp) at 24 h, 50 μM in data set [5] (setting [10]) and in data set [5] (setting [12]) were 25.7 ×10⁻⁶ cm/s and 20.4 ×10⁻⁶ cm/s, respectively. In addition, the Papp at 30 min, 50 μM in data set [5] (setting [20]) was 15.5 ×10⁻⁶ cm/s. Further, the “RM (membrane retention)” value in data set [5] (setting [13]) is on record as 0.50(±0.04); in data set [5] (setting [14]), 0.74(±0.01); in data set [5] (setting [15]) it was 0.88(±0.01); in data set [5] (setting [16]) it was 0.33(±0.01); in data set [5] (setting [17]), 0.62(±0.04); in data set [5] (setting [18]) it was 0.83(±0.02). In data set [5] (range over all incubation times (30 min, 4 h, 24 h), with and without stirring), the “RM (membrane retention)” value is on record as 0.33-0.88. Besides, the entries for the “log Pe” value in data set [5] (setting [21]) and in data set [5] (setting [19]) were -3.25(±0.25) cm/s and -4.88 cm/s, respectively.

For `Nc1ccccc1N` [o-Phenylenediamine], the “log Kp” value in data set [1] (setting [7]) is -6.70 cm/s. Also, in data set [5] (setting [8]), the “log Pe” value is recorded as -5.42±0.02 cm/s.

For the compound `CC(=O)CC(c1ccccc1)c1c(O)c2ccccc2oc1=O` (stereo not drawn) [warfarin], the “change of skin-PAMPA log Pe” value in data set [2] was “slight increase at pH 9 and 10”.

As usually defined, the Papp is a coefficient for how fast a substance crosses the barrier. High values mean ready permeation, low ones poor permeation.
